According to PubChem BioAssay (NCI):
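96-well plates; 48 h exposure; 5 concentrations. Endpoints by linear interpolation between flanking doses. Not reached: highest tested concentration assigned. The concentration for full growth arrest is given as TGI.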

Key:
Assay in all cases: growth of human tumour cells (NCI), 48 h
[1] = test system: 786-0 renal
[2] = test system: A498 renal
[3] = test system: A549 NSCLC
[4] = test system: ACHN renal
[5] = test system: BT-549 breast
[6] = test system: CAKI-1 renal
[7] = test system: COLO 205 colon
[8] = test system: DU-145 prostate
[9] = test system: EKVX NSCLC
[10] = test system: HCC-2998 colon
[11] = test system: HCT-116 colon
[12] = test system: HCT-15 colon
[13] = test system: HL-60(TB) leukemia
[14] = test system: HOP-62 NSCLC
[15] = test system: HOP-92 NSCLC
[16] = test system: HS 578T breast
[17] = test system: HT29 colon
[18] = test system: IGROV1 ovarian
[19] = test system: K-562 leukemia
[20] = test system: KM12 colon
[21] = test system: LOX IMVI melanoma
[22] = test system: M14 melanoma
[23] = test system: MALME-3M melanoma
[24] = test system: MCF7 breast
[25] = test system: MDA-MB-231 breast
[26] = test system: MDA-MB-435
[27] = test system: MDA-N
[28] = test system: NCI-H226 lung
[29] = test system: NCI-H23 lung
[30] = test system: NCI-H460 lung
[31] = test system: NCI-H522 lung
[32] = test system: NCI/ADR-RES ovarian
[33] = test system: OVCAR-3 ovarian
[34] = test system: OVCAR-4 ovarian
[35] = test system: OVCAR-5 ovarian
[36] = test system: OVCAR-8 ovarian
[37] = test system: PC-3 prostate
[38] = test system: RPMI-8226 leukemia
[39] = test system: RXF 393 renal
[40] = test system: SF-268 CNS
[41] = test system: SF-295 CNS
[42] = test system: SF-539 CNS
[43] = test system: SK-MEL-2 melanoma
[44] = test system: SK-MEL-28 melanoma
[45] = test system: SK-MEL-5 melanoma
[46] = test system: SK-OV-3 ovarian
[47] = test system: SN12C renal
[48] = test system: SNB-19 CNS
[49] = test system: SNB-75 CNS
[50] = test system: SR leukemia
[51] = test system: SW-620 colon
[52] = test system: TK-10 renal
[53] = test system: U251 CNS
[54] = test system: UACC-257 melanoma
[55] = test system: UACC-62 melanoma
[56] = test system: UO-31 renal
[57] = test system: CCRF-CEM leukemia
[58] = test system: T-47D breast
[59] = test system: MOLT-4 leukemia

CN(C)S(=O)(=O)Nc1ccccn1
TGI [1]: > 100 µM
TGI [2]: > 100 µM
TGI [3]: > 100 µM
TGI [4]: > 100 µM
TGI [5]: > 100 µM
TGI [6]: > 100 µM
TGI [7]: > 100 µM
TGI [8]: > 100 µM
TGI [9]: > 100 µM
TGI [10]: > 100 µM
TGI [11]: > 100 µM
TGI [12]: > 100 µM
TGI [13]: > 100 µM
TGI [14]: > 100 µM
TGI [15]: > 100 µM
TGI [16]: > 100 µM
TGI [17]: > 100 µM
TGI [18]: > 100 µM
TGI [19]: > 100 µM
TGI [20]: > 100 µM
TGI [21]: > 100 µM
TGI [22]: > 100 µM
TGI [23]: > 100 µM
TGI [24]: > 100 µM
TGI [25]: > 100 µM
TGI [26]: > 100 µM
TGI [27]: > 100 µM
TGI [28]: > 100 µM
TGI [29]: > 100 µM
TGI [30]: > 100 µM
TGI [31]: > 100 µM
TGI [32]: > 100 µM
TGI [33]: > 100 µM
TGI [34]: > 100 µM
TGI [35]: > 100 µM
TGI [36]: > 100 µM
TGI [37]: > 100 µM
TGI [38]: > 100 µM
TGI [39]: > 100 µM
TGI [40]: > 100 µM
TGI [41]: > 100 µM
TGI [42]: > 100 µM
TGI [43]: > 100 µM
TGI [44]: > 100 µM
TGI [45]: > 100 µM
TGI [46]: > 100 µM
TGI [47]: > 100 µM
TGI [48]: > 100 µM
TGI [49]: > 100 µM
TGI [50]: > 100 µM
TGI [51]: > 100 µM
TGI [52]: > 100 µM
TGI [53]: > 100 µM
TGI [54]: > 100 µM
TGI [55]: > 100 µM
TGI [56]: > 100 µM

C[C@@H]1C[C@H](O)[C@]2(O)O[C@@H]3C[C@@]4(C=O)[C@@H](CC=C5[C@@H]4CC[C@]4(C)[C@@H](C6=CC(=O)OC6)CC[C@]54O)C[C@H]3O[C@@H]2O1
TGI [2]: 0.0627 µM
TGI [3]: 0.097 µM
TGI [4]: 0.0821 µM
TGI [5]: 0.0508 µM
TGI [6]: 0.0722 µM
TGI [57]: 0.0161 µM
TGI [7]: 1.94 µM
TGI [8]: 0.0384 µM
TGI [9]: 0.215 µM
TGI [10]: 0.285 µM
TGI [11]: 0.036 µM
TGI [12]: 0.194 µM
TGI [13]: 0.062 µM
TGI [14]: 0.0319 µM
TGI [15]: 0.174 µM
TGI [16]: 0.191 µM
TGI [17]: 0.25 µM
TGI [19]: > 100 µM
TGI [20]: 0.749 µM
TGI [22]: 0.817 µM
TGI [23]: 0.0532 µM
TGI [25]: 2.65 µM
TGI [26]: 0.151 µM
TGI [27]: 0.195 µM
TGI [28]: 0.233 µM
TGI [29]: 0.0207 µM
TGI [30]: 0.0711 µM
TGI [31]: 0.0468 µM
TGI [32]: 0.215 µM
TGI [33]: 0.308 µM
TGI [34]: < 0.0169 µM
TGI [35]: 0.492 µM
TGI [36]: 0.22 µM
TGI [38]: 0.349 µM
TGI [40]: 0.166 µM
TGI [41]: 0.627 µM
TGI [42]: 0.141 µM
TGI [45]: 0.133 µM
TGI [46]: 1.86 µM
TGI [47]: 0.131 µM
TGI [48]: 0.93 µM
TGI [49]: 0.916 µM
TGI [51]: 1.87 µM
TGI [58]: 0.325 µM
TGI [52]: 0.186 µM
TGI [53]: 0.188 µM
TGI [54]: 0.372 µM
TGI [56]: 0.153 µM

C[C@]12CC/C(=N\O)C=C1CC[C@@H]1[C@@H]2CC[C@]2(C)C(=N/O)/C(=C/c3cccnc3)C[C@@H]12
TGI [1]: > 100 µM
TGI [2]: 44.4 µM
TGI [3]: 59.8 µM
TGI [4]: 73.4 µM
TGI [5]: 54.3 µM
TGI [57]: > 100 µM
TGI [7]: 61.8 µM
TGI [8]: > 100 µM
TGI [9]: 79.5 µM
TGI [11]: > 100 µM
TGI [12]: 44.5 µM
TGI [13]: 4.12 µM
TGI [14]: 85.5 µM
TGI [15]: 63.5 µM
TGI [16]: 18.6 µM
TGI [17]: 79.5 µM
TGI [18]: > 100 µM
TGI [19]: 27.7 µM
TGI [20]: 32.1 µM
TGI [21]: 9.74 µM
TGI [22]: 75 µM
TGI [23]: 72.3 µM
TGI [24]: 29.2 µM
TGI [25]: 56.2 µM
TGI [26]: 46.9 µM
TGI [27]: 49.3 µM
TGI [59]: 4 µM
TGI [28]: 18.1 µM
TGI [29]: > 100 µM
TGI [30]: 22.7 µM
TGI [31]: 45.2 µM
TGI [32]: > 100 µM
TGI [34]: 65.3 µM
TGI [35]: 75.3 µM
TGI [36]: 80.3 µM
TGI [37]: > 100 µM
TGI [38]: 8.95 µM
TGI [41]: 31.7 µM
TGI [42]: 82.8 µM
TGI [43]: 97.8 µM
TGI [44]: 53.1 µM
TGI [46]: > 100 µM
TGI [47]: 43.5 µM
TGI [48]: > 100 µM
TGI [51]: > 100 µM
TGI [52]: 59.3 µM
TGI [53]: 94.9 µM
TGI [54]: 57.2 µM
TGI [55]: 10.4 µM
TGI [56]: 79.9 µM

O=C(O[C@H](/C=C/c1ccccc1)P1(=O)N(Cc2ccccc2)[C@@H]2CCCC[C@H]2N1Cc1ccccc1)c1ccccc1
TGI [1]: 42 µM
TGI [2]: > 100 µM
TGI [3]: > 100 µM
TGI [4]: > 100 µM
TGI [5]: > 100 µM
TGI [6]: 6.93 µM
TGI [57]: > 100 µM
TGI [7]: 5.08 µM
TGI [9]: 68 µM
TGI [10]: > 100 µM
TGI [11]: 12.1 µM
TGI [12]: 11.1 µM
TGI [13]: > 100 µM
TGI [14]: > 100 µM
TGI [15]: 6.72 µM
TGI [16]: > 100 µM
TGI [17]: 18.4 µM
TGI [18]: 15.8 µM
TGI [19]: > 100 µM
TGI [20]: 14.2 µM
TGI [21]: 11.8 µM
TGI [22]: > 100 µM
TGI [23]: 12 µM
TGI [24]: > 100 µM
TGI [25]: 21 µM
TGI [26]: 96.3 µM
TGI [27]: > 100 µM
TGI [28]: 7.98 µM
TGI [29]: 7.43 µM
TGI [30]: > 100 µM
TGI [31]: > 100 µM
TGI [32]: 43.1 µM
TGI [33]: 94.3 µM
TGI [34]: 6.19 µM
TGI [35]: > 100 µM
TGI [36]: > 100 µM
TGI [37]: > 100 µM
TGI [38]: 6.39 µM
TGI [40]: > 100 µM
TGI [41]: > 100 µM
TGI [42]: 22.2 µM
TGI [43]: 5.53 µM
TGI [44]: > 100 µM
TGI [45]: 3.88 µM
TGI [46]: > 100 µM
TGI [47]: 9.68 µM
TGI [48]: > 100 µM
TGI [50]: > 100 µM
TGI [51]: > 100 µM
TGI [58]: 3.66 µM
TGI [52]: > 100 µM
TGI [53]: 31.3 µM
TGI [54]: > 100 µM
TGI [55]: 40 µM
TGI [56]: > 100 µM
